The values that follow come from US6313090A, “Methods for treating parasitic infection using thiopeptides” (The United States of America as represented by the …, priority 2000, dated 2001).

Assay [1] deals with C. parvum GCH1 oocysts. The assay is described as follows: Intact C. parvum oocyst assay on MDBKF5D2 cell monolayers, immunofluorescence. Format: cell-based. The method, then:
In vitro doses of drugs. Thiostrepton (Calbiochem) was dissolved in sterile complete Dulbecco's Modified Eagle Medium (DMEM) supplemented with dimethyl sulfoxide (DMSO) at 0.2% and tested at concentrations of 800, 400, 200, and 100, 10, 1 and 0.1 μg/ml.
(§1) Intact C. parvum oocyst asset 3.0×10^4 C. parvum GCH1 oocysts per well were incubated in the above-mentioned concentrations of drug at 37° C. (8% CO2) on confluent MDBKF5D2 cell monolayers in 96 well microtiter plates. The level of infection in each well was determined and analyzed by immunofluorescence assay at 48 hours, using C. parvum sporozoite rabbit anti-serum (0.1%) and fluorescein-conjugated goat anti-rabbit antibody (1.0%). Percent inhibition was calculated by subtracting the mean parasite/drug from the mean parasitelmedium, divided by the mean parasite/medium, all of which was multiplied by 100. The analysis was performed using MCID and an inverted microscope.
In vitro doses of drugs. Thiostrepton (Calbiochem) and Phavic (NTZ) were dissolved in sterile complete Dulbecco's Modified Eagle Medium (DMEM) supplemented with dimethyl sulfoxide (DMSO) at 0.2% and tested at concentrations of 800, 400, 200, and 100 μg/ml. NTZ was tested at concentrations of 100, 10, 1 and 0.1 μg/ml. Paromomycin (Sigma) was dissolved in DMEM and tested at concentrations of 2000, 1000, 500 and 250 μg/ml.
as §1, with “assay .” for “asset”, “plates. For some monolayers, the oocysts were incubated in DMEM on the cell monolayers for four hours, at which time the monolayers were washed and then drug was added to the wells.” for “plates.”, “parasite/medium,” for “parasitelmedium,”
In vitro doses of drugs. Thiostrepton (Calbiochem), Phavic (NTZ) were dissolved in sterile complete Dulbecco's Modified Eagle Medium (DMEM) supplemented with dimethyl sulfoxide (DMSO) at 0.2%. Thiostrepton was tested at a concentration of 800 μg/ml. NTZ was tested at a concentration of 10 μg/ml. Paromomycin was dissolved in DMEM and tested at 2000 μg/ml. Cell monolayers were infected and washed, followed by the addition of drug at time intervals of 0, 2, 4, 8 and 24 hours.
as §1, with “assay.” for “asset”, “analyze” for “analyzed”, “parasite/medium,” for “parasitelmedium,”

Assay [2] concerns P. falciparum (strain 3D7). The assay is described as follows: Assay of growth inhibition, [3H]hypoxanthine incorporation. The class given is cell-based. As to conditions: in vitro culture; [3H]hypoxanthine uptake and incorporation. Here is the method: Assay of Growth inhibition. Thiostrepton (1525 u/mg; Calbiochem) and anisomycin (Sigma) were dissolved at 100 mM in DMSO (Pierce). P. falciparum (strain 3D7) (44) was maintained in culture with human erythrocytes (5% hematocrit) in RPMI-1640 (Life Technologies) supplemented with HEPES and sodium bicarbonate and human sera (10%) under standard conditions (18,19). The growth inhibition assay was conducted as described (20). Briefly, the parasitemia was adjusted to 0.1% parasitemia, 2.5% hematocrit and 200 μl aliquots placed in wells of a microtitre dish. Serial dilutions of drugs were made in RPMI. Thiostrepton was diluted to 10 mM in DMSO before the serial dilutions in RPMI. Aliquots (20 μl) were added in triplicate to the cultures in the microtitre plate, mixing well. At the highest concentrations (final 0.2mM), thiostrepton precipitates. After incubation for 48 hours under standard conditions, [2,8-^3 H]-hypoxanthine Moravek Biochemicals, 12.5 Ci/mmol) in RPMI (20 μl, 0.05 mCi/ml) was added to each well. After incubation for a further 24 hours, the cultures were lysed and incorporated radioactivity was measured with an automated counter.
Assay of inhibition. The effect of thiostrepton on growth and protein synthesis of P. falciparum was compared to anisomycin, since the effect of both of these drugs is on protein synthesis. To assay the effect of thiostrepton and anisomycin on the growth of P. faciparum, inhibition of the uptake and incorporation of [^3 H]hypoxanthine was quantitated at serial dilutions of the drugs on an in vitro culture of P. falciparum. […] Inhibition of the incorporation of [^3 H]leucine was also tested at the same dilutions of the drugs. For anisomycin, total protein synthesis was inhibited 50% at the IC50 (0.511 μM) for inhibition of growth, with the concentration-response almost superimposable on that of protein synthesis. […] This would occur if organelle protein synthesis was the target of inhibition (29,30).

The test system of assay [3] is rpoB/C mRNA encoded by the 35-kb plastid-like organelle genome. Format: cell-based, P. falciparum. As to conditions: thiostrepton at 8 μM, rifampin at 80 μM. The method, then: As of organelle and cyloplasmic transcript levels. RNA polymerase transcript levels were assessed by comparing the amounts of RNA synthesized at timepoints following drug treatment. Cultures of P. falciparum (3.2% parasitemia, 5% hematocrit) were treated with thiostrepton at 8 μM and rifampin (Sigma) at 80 μM; near the IC99 values (this study and ref. 22). Aliquots (5 ml) of treated and control cultures were removed and immediately processed for RNA with a guanidinium thiocyanate solution, according to the manufacturer's directions (RNAgents, Promega). All RNA samples were dissolved in 50 μl DEPC-treated water, DNase I treated as previously described (23) and an aliquot (1 μl) was removed for RT-PCR First strand synthesis of cDNA was completed with a random hexamer (Superscript Preamplification System, Life Technologies). One-tenth of the CDNA product was utilized for PCR of rpoB/C, MSA1, and rRNA. Primers corresponding to the 3' region of rpoB, 5'-GGGCTTTAGAAGCTTTTGG-3' (SEQ ID NO:1), and the 5' region of rpoC, 5'-[…]-3' (SEQ ID NO:2) were applied as described (2,3) for PCR of nascent rpoB/C transcripts. Reactions were cycled with the following parameters: 94° C./30 seconds, 42° C./30 seconds, 72° C./60 seconds, 35 cycles. Primers for amplification of nucleotide 64 to 614 of MSA1 with 5'-GTGTGATAATATTCATGG-3' (SEQ ID NO:3) and 5'-GGAGAGCATTTGGTG-3' (SEQ ID NO:4)(24) and the small subunit rRNA with oligonucleotides 841 and 844 (23) were used for amplification reactions following the parameters in the respective references except with 35 cycles. Samples were also analyzed after 25 cycles of amplification to ensure detection in the linear range of the amplification reaction, with similar results. Following electrophoresis of aliquots from the amplification reactions on 1% agarose:TBE gels, samples were transferred to nylon membranes (GeneScreen Plus, DuPont) and hybridized as described (25). The amplification products were probed with 5'-^32 P-labeled oligonucleotides. The rpoB/C products were probed with 5'-[…]-3' (SEQ ID NO:5) (nucleotide 2009-2030 of rpoB) and 5'-CGGAGAGGTATTAATACC-3' (SEQ ED NO:6) (nucleotide 108-125 of rpoC), in 5×SSC, 10 mM sodium phosphate, 0.05% sodium pyrophosphate, 1% sodium dodecyl sulfate, 5×Denhardt's solution, 100 μg/ml yeast tRNA, 42° C. and washed in the hybridization solution lacking Denhardt's and tRNA at 37° C., three times. The final wash was 1×SSC, 0.5% sodium dodecyl sulfate, 42° C. followed by autoradiography. The same results were obtained with either probe. The MSA1 amplification products were similarly probed with 5'-[…]-3' (SEQ ID NO:7) and the rRNA products with oligonucleotide 842 (23).
The target of inhibition by thiostrepton. […]

For assay [4], the system named is P. falciparum (strain 3D7). The following applies: concentration used, near the IC99 value; cited from earlier work.
Where [5] appears, read: Table 4 Washed at 4 hours, 1 μg/ml.
The mark [6] stands for this setting: Table 4 Washed at 4 hours, 10 μg/ml.
[7] abbreviates: Table 4 Washed at 4 hours, .1 μg/ml.
Where [8] appears, read: Table 5, 10 μg/ml, drug added at 0 hrs.
[9] abbreviates: Table 5, 10 μg/ml, drug added at 2 hrs.
Setting [10] is: Table 5, 10 μg/ml, drug added at 4 hrs.
Setting [11] is: Table 5, 10 μg/ml, drug added at 8 hrs.
[12] abbreviates: Table 5, 10 μg/ml, drug added at 24 hrs.

The structures appear in SMILES notation. pIC50: −log10 of the molar value. A value given as a limit tells only on which side of the number the result lay.

In the case of `CC(=O)Oc1ccccc1C(=O)Nc1ncc([N+](=O)[O-])s1` [NTZ], the “Inhibition Percent” value worked out at 43.60% in assay [1] (Table 3 Unwashed, 1 μg/ml); 92.91% in assay [1] (Table 3 Unwashed, 10 μg/ml); 10.31% in assay [1] (Table 3 Unwashed, .1 μg/ml); 83.27% in assay [1] (setting [5]); 93.12% in assay [1] (setting [6]); 4.42% in assay [1] (setting [7]). For the same compound, the “Inhibition Percent” value in assay [1] (setting [8]) came out at 91.12%; in assay [1] (setting [9]), 95.76%; in assay [1] (setting [10]), 91.18%; in assay [1] (setting [11]) it was 86.01%; in assay [1] (setting [12]) it was 60.60%. In addition, the “Inhibition Score” value is 1 (1: 31-55%) in assay [1] (Table 3 Unwashed, 1 μg/ml); 4 (4: 91-100%) in assay [1] (Table 3 Unwashed, 10 μg/ml); 0 (0: 0-30%) in assay [1] (Table 3 Unwashed, .1 μg/ml); 3 (3: 71-90%) in assay [1] (setting [5]); 4 (4: 91-100%) in assay [1] (setting [6]); 0 (0: 0-30%) in assay [1] (setting [7]). Also, the “Inhibition Score” value in assay [1] (setting [8]) is given as 4 (4: 91-100%); in assay [1] (setting [9]), 4 (4: 91-100%); in assay [1] (setting [10]) it was 4 (4: 91-100%); in assay [1] (setting [11]), 3 (3: 71-90%); in assay [1] (setting [12]), 2 (2: 56-70%). Further, the “Parasite Count” value is 694.75 in assay [1] (Table 3 Unwashed, 1 μg/ml); 87.31 in assay [1] (Table 3 Unwashed, 10 μg/ml); 1104.81 in assay [1] (Table 3 Unwashed, .1 μg/ml); 233.44 in assay [1] (setting [5]); 96.06 in assay [1] (setting [6]); 1334.06 in assay [1] (setting [7]). Besides, the “Parasite Count” value came to 113.06 in assay [1] (setting [8]); 53.94 in assay [1] (setting [9]); 112.31 in assay [1] (setting [10]); 178.13 in assay [1] (setting [11]); 501.63 in assay [1] (setting [12]). For the same compound, the “activity when drug is added 24 hours after infection” value in assay [1] (intracellular stages only) is “still highly inhibitory”.

The pIC50 is the IC50 on a negative log10 scale, so that one unit is a factor of ten. Low values mean a large IC50, high ones a small IC50. `COc1ccc(C[C@H]2NC[C@H](O)[C@H]2OC(C)=O)cc1` [anisomycin] had a negative-log IC50 (pIC50) in assay [2] of 6.30.

Take `CO[C@H]1/C=C/O[C@@]2(C)Oc3c(C)c(O)c4c(O)c(c(/C=N/N5CCN(C)CC5)c(O)c4c3C2=O)NC(=O)/C(C)=C\C=C\[C@H](C)[C@H](O)[C@@H](C)[C@@H](O)[C@@H](C)[C@H](OC(C)=O)[C@@H]1C` [rifampin]: the “decay of mRNA corresponding to rpoB/C, time of drug treatment” value in assay [3] was no more than 6 h. Further, the “IC99 (near)” value in assay [4] is roughly 80 µM.
